Reference: PubChem BioAssay (NCI)
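The compound was tested at five concentrations on cells cultured in 96-well plates, with a 48-hour exposure period. TGI: concentration producing complete growth inhibition.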

Legend:
Assay in all cases: growth of human tumour cells (NCI), 48 h
HCC-2998 colon = test system: HCC-2998 colon
HCT-15 colon = test system: HCT-15 colon
HOP-62 NSCLC = test system: HOP-62 NSCLC
LOX IMVI melanoma = test system: LOX IMVI melanoma
MCF7 breast = test system: MCF7 breast
SK-MEL-2 melanoma = test system: SK-MEL-2 melanoma
T-47D breast = test system: T-47D breast
UACC-257 melanoma = test system: UACC-257 melanoma
UACC-62 melanoma = test system: UACC-62 melanoma
MALME-3M melanoma = test system: MALME-3M melanoma

Row | Compound | TGI (HCC-2998 colon) [µM] | TGI (HCT-15 colon) [µM] | TGI (HOP-62 NSCLC) [µM] | TGI (LOX IMVI melanoma) [µM] | TGI (MCF7 breast) [µM] | TGI (SK-MEL-2 melanoma) [µM] | TGI (T-47D breast) [µM] | TGI (UACC-257 melanoma) [µM] | TGI (UACC-62 melanoma) [µM] | TGI (MALME-3M melanoma) [µM]
1 | OC(C#CCN1CCCC1)(c1ccccc1)c1ccccc1Cl (stereo unspecified) | 40.4 | > 100 | 38.7 | 33.4 | 32.9 | 61.5 | > 100 | 40.3 | 57.5 | –
2 | O=C1NC(O)CCN1C1OC(CO)C(O)C1O (stereo unspecified) | > 250 | > 250 | > 250 | > 250 | > 250 | > 158 | – | > 250 | > 250 | > 250
3 | O=C1CSC2(CC(/C=C/c3cccs3)=NN2c2cccc(S(=O)(=O)O)c2)N1c1nc2ccccc2s1 (stereo unspecified) | > 100 | > 100 | – | > 100 | > 100 | > 100 | 80.2 | > 100 | > 100 | > 100
4 | C[C@@H]1CCC2[C@@H](C)[C@@H](O[C@H]3O[C@@H]4O[C@@]5(C)CCC6[C@H](C)CCC([C@H]3C)[C@]64OO5)O[C@@H]3O[C@@]4(C)CCC1[C@@]23OO4 (stereo partly specified) | > 25 | > 25 | > 25 | > 25 | > 25 | > 25 | > 25 | > 25 | > 25 | –
5 | Cn1ncc2c(NCc3ccccc3)ncnc21 | > 100 | > 100 | > 100 | > 100 | > 100 | – | > 100 | > 100 | > 100 | > 100
6 | O=C(c1ccccc1)c1ccc2c(c1)NC(=O)c1ccccc1SSc1ccccc1C(=O)N2 | – | > 100 | > 100 | > 100 | – | > 100 | > 100 | > 100 | > 100 | > 100
7 | CC1=C(C#N)c2nc3ccccc3n2C(=O)C1(C)CCO (stereo unspecified) | > 100 | > 100 | > 100 | > 100 | > 100 | > 100 | – | > 100 | > 100 | > 100
8 | CC(C)(C)N=C(N)NC#N | > 100 | > 100 | > 100 | > 100 | > 100 | > 100 | – | > 100 | > 100 | > 100
9 | N#CC(c1ccccc1)N(CCOCCOCCN(C(=O)c1ccccc1)C(C#N)c1ccccc1)C(=O)c1ccccc1 (stereo unspecified) | > 100 | > 100 | – | > 100 | > 100 | > 100 | 67.4 | > 100 | > 100 | > 100
10 | CN1CCN(Cc2cc3c(nn2)-c2ccccc2C3=O)CC1 | – | > 100 | – | – | > 100 | > 100 | > 100 | 37.1 | > 100 | 39.2
11 | Cc1ccc(/C=C2/N=C(N/N=C\C(O)C(O)C(O)C(O)CO)NC2=O)cc1 (stereo unspecified) | > 100 | > 100 | > 100 | > 100 | > 100 | > 100 | > 100 | > 100 | – | > 100
